This is an account of results in patent US6015808A, “Synthesis of pharmaceutical compositions with lactams and β-lactams/oxo thia azabicyclo compounds” (priority 1995, dated 2000).

In brackets after ≈: the same amount, converted by molar mass. Entries after “also recorded” stand apart in the source; their conditions may differ. Starred links: 1 amine or outer side, 2 acyl side, 3 side chain; linkers in the order of their positions; H or OH if unused. Positions of bridges follow the written chain, without caps; N, C: chain ends. Non-standard residues stand in square brackets, D forms with d. Residues, ends and D or L forms follow the SMILES beside them. Chains are numbered I, II in the order given. Actinocin(9to1) = Cc1c2oc3c(C)ccc(C(=O)[*:1])c3nc-2c(C(=O)[*:2])c(N)c1=O; NMeV = CN[C@H](C(=O)O)C(C)C; Sar = CNCC(=O)O

The test system of one series is P. marneffei. Kind of series: in vitro MIC against P. marneffei, tube double dilution. Type of series: cell-based, Penicillium marneffei. Particulars: Talaromyces marneffei, standard tube double dilution, read-out: minimum inhibitory concentration (MIC).
The subject of the next series is Candida albicans. Kind of series: survival of mice challenged with Candida albicans. Type of series: in vivo, Swiss albino mice. Particulars: for survival rate: 21-day study period, clotrimazole types 7.5 mg/kg, nystatin types 50 mg/kg; for survival rate after extended treatment: treatment extended two more weeks, 28 days post-inoculation.
Series [1] deals with human breast carcinoma MX-1. As to the kind of experiment: MX-1 human breast tumor in nude mice. Particulars: intraperitoneal; for effect on MX-1 tumors (in words): 0.5 mg/kg escalating to 5 mg/kg (parents) or 20 mg/kg (JAI-); for deaths / survival of MX-1 mice (in words): 3 animals per group. As to the method: Nude mice were grafted with transplantable human breast carcinoma MX-1, which was allowed to grow until the tumors were very large. The mice were then treated with clinically compatible dosage schedules of the compounds. All doses were administered intraperitoneally.
A control group (3 animals in the group), grafted with MX-1 tumor, which was allowed to grow to large tumors. Then, the mice were injected with distilled water and their tumors were measured simultaneously with the experimental treated animals.
1. […] The starting dose of mitomycin C was 0.5 mg/kg. escalating up to 5 mg/kg to all mice in the group. […] (3 animals per group).
2. […] The starting dose was 0.5 mg/kg escalating to 20 mg/kg. […] (3 animals per group).
3. […] The starting dose was 0.5 mg/kg escalating to 5 mg/kg. (3 animals per group).
4. […] The starting dose was 0.5 mg/kg escalating to 20mg/kg doses. (3 animals per group).

Series [2] relates to Mycobacterium avicum Complex (MAC). Particulars: cited from earlier work.
Another series deals with M. leprae. As to the kind of experiment: in vitro culture of M. leprae, growth inhibition. The class given is cell-based.
A short description of the next series: oral absorption. Type of series: in vivo.
A further series can be described thus: toxicity / LD 50 in mice. Particulars: mouse, in vivo.
The test system of another series is fungi. Particulars: cited from earlier work.
The test system of the next series is Bacillus subtilis. Particulars: 28° C., 12 hours.
For another series, the system named is bacteria. Particulars: cited from earlier work.

Description for Bacillus subtilis: All plates were incubated at 10° C. for 30 minutes, and then transferred to an incubator at 28° C. for 12 hours. Zones of inhibition were obtained from each plate, and Rf values were calculated.

As to `Nc1nc(=O)[nH]cc1F` [5-FC, 5-fluorocytosine], the MIC in the series with P. marneffei was in the range of 0.195 to 0.78 µg/mL (≈ 1.51 to 6.04 µM).

`Clc1ccccc1C(c1ccccc1)(c1ccccc1)n1ccnc1` [Clotrimazole]: the solubility in water entry is “insoluble in water”. Also, in the series on Candida albicans, the survival rate stood at 62.5% and the “survival rate after extended treatment” value was “zero”.

As for `CO[C@@]12[C@H](COC(N)=O)C3=C(C(=O)C(C)=C(N)C3=O)N1C[C@@H]1N[C@@H]12` [Mitomycin C], in series [1] (listed as Mitomycin-C), the “effect on MX-1 tumors (in words)” value is recorded as “the tumors regressed” and the “deaths / survival of MX-1 mice (in words)” value is on record as “died”. Besides, in series [1] (listed as mitomycin-C), the “effect on MX-1 tumors (in words)” value is “eliminated the human MX-1 breast tumors” and the “deaths / survival of MX-1 mice (in words)” value is listed as “All animals died in a two month time span; also recorded: all animals in this treatment group died from hepatotoxicity”.

As for `NCC[C@H](O)C(=O)N[C@@H]1C[C@H](N)[C@@H](O[C@H]2O[C@H](CN)[C@@H](O)[C@H](O)[C@H]2O)[C@H](O)[C@H]1O[C@H]1O[C@H](CO)[C@@H](O)[C@H](N)[C@H]1O` [amikacin], the “activity against MAC (earlier studies)” value in series [2] is “high in vitro and in vyvn activity”. For the same compound, in the series on M. leprae (Mycobacterium leprae, 100 mcg/ml, read-out: growth inhibition against M. leprae), the inhibition (in general, the percentage by which the read-out fell short of the control) at 100 µg/mL stood at 63%. The compound also gave a M. leprae killed in the series on M. leprae (concentration not given) of 63%. Besides, the “effect of combination with dapsone on M. leprae” value with M. leprae (in combination with dapsone) is recorded as “did not show any additive effects”.

As for `C[C@@H]1[C@H](O)[C@@H](C)/C=C/C=C/C=C/C=C/C=C/C=C/C=C/[C@H](O[C@@H]2O[C@H](C)[C@@H](O)[C@H](N)[C@@H]2O)C[C@@H]2O[C@](O)(C[C@@H](O)C[C@@H](O)[C@H](O)CC[C@@H](O)C[C@@H](O)CC(=O)O[C@H]1C)C[C@H](O)[C@H]2C(=O)O` [amphotericin B], in the series with P. marneffei, the MIC lay in the range of 0.195 to 1.56 µg/mL (≈ 0.211 to 1.69 µM). Besides, the oral absorption entry in “oral absorption” is recorded as “poorly absorbed orally”.

For the compound `Cc1c2oc3c(C)ccc(C(=O)N[C@@H]4C(=O)N[C@H](C(C)C)C(=O)N5CCC[C@H]5C(=O)N(C)CC(=O)N(C)[C@@H](C(C)C)C(=O)O[C@@H]4C)c3nc-2c(C(=O)N[C@@H]2C(=O)N[C@H](C(C)C)C(=O)N3CCC[C@H]3C(=O)N(C)CC(=O)N(C)[C@@H](C(C)C)C(=O)O[C@@H]2C)c(N)c1=O` [dactinomycin] (I: T[dV]P[Sar][NMeV] / II: T[dV]P[Sar][NMeV]; ester I:1-I:C, II:1-II:C; linker I:N-II:N via Actinocin(9to1)), in “toxicity / LD 50 in mice”, the LD50 – broadly, the dose at which mortality reaches 50% – was 0.5 to 5 mg/kg.

In the case of `CC(=O)N1CCN(c2ccc(OCC3COC(Cn4ccnc4)(c4ccc(Cl)cc4Cl)O3)cc2)CC1` (stereo not drawn) [ketoconazole], the MIC in the series with P. marneffei lay within 0.195 to 0.39 µg/mL (≈ 0.367 to 0.734 µM).

For the compound `Clc1ccc(COC(Cn2ccnc2)c2ccc(Cl)cc2Cl)c(Cl)c1` (stereo not drawn) [miconazole], the MIC in the series on P. marneffei stood at 0.195 µg/mL (≈ 0.469 µM).

On to `C[C@@H]1[C@H](O)[C@@H](C)/C=C/C=C/CC/C=C/C=C/C=C/C=C/C(O[C@H]2O[C@H](C)[C@@H](O)[C@H](N)[C@@H]2O)CC2O[C@](O)(CC(O)C(O)CCC(O)CC(O)CC(O)CC(=O)O[C@H]1C)CC(O)C2C(=O)O` (stereo partly drawn) [nystatin], for which, in the series with Candida albicans, the survival rate is recorded as 75% and the “survival rate after extended treatment” value is recorded as 75%.

For the compound `CC1(C)S[C@@H]2[C@H](NC(=O)Cc3ccccc3)C(=O)N2[C@H]1C(=O)O` [sodium penicillin G], the solubility in water result is on record as “soluble in water”. Moreover, the solubility in acetone result (acetone) is recorded as “insoluble in acetone”. Moreover, under “methanol, alcohols, ethyl acetate, other solvents”, the “solubility in methanol, alcohol, other solvents” value was “soluble in water, alcohol and some solvents”. The “antifungal activity (stated as known)” value in the series on fungi was “no antifungal activity”.

Turning to bleomycin, the “effect on MX-1 tumors (in words)” value in series [1] is “some initial slowing in tumor growth, but then had no response”; in series [1] (listed as Bleomycin) it was “some initial slowing of tumor growth, but then there was no response”.

As for hamycin, the “zone of inhibition, B. subtilis seeded plate” value in the series with Bacillus subtilis is “no zone spot”. For the same compound, the “antibacterial activity (stated as known)” value with bacteria is reported as “no antibacterial activity”.
